From ChEMBL document CHEMBL2429832, “N-substituted 8-aminopentacyclo[5.4.0.0(2,6).0(3,10).0(5,9)]undecanes as σ receptor ligands with potential neuroprotective effects” (Bioorg Med Chem, 2013)

Key:
[1] = target: Delta-type opioid receptor (Homo sapiens, UniProt P41143); experiment: Inhibition of delta opioid receptor (unknown origin) at 10 uM by PDSP assay relative to control
[2] = target: 5-hydroxytryptamine receptor 1E (Homo sapiens) (UniProt P28566); experiment: Inhibition of 5-HT1E receptor (unknown origin) at 10 uM by PDSP assay relative to control
5-hydroxytryptamine receptor 1E (Homo sapiens), sequence (P28566 whole entry): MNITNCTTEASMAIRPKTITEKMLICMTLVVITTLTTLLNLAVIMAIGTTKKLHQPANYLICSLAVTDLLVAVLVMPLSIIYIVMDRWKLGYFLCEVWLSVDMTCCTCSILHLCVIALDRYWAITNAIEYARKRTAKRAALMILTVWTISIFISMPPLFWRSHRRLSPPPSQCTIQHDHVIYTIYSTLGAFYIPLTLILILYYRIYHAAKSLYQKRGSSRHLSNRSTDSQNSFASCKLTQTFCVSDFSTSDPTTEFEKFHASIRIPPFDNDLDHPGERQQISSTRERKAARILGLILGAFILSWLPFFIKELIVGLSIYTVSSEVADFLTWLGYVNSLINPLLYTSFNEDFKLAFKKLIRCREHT

[3] = target: GABA-A receptor; agonist GABA site (Homo sapiens) (UniProt P14867+P47870+P28472+P48169+P34903+P18505+P47869+P31644+Q16445); experiment: Inhibition of GABAA receptor (unknown origin) at 10 uM by PDSP assay relative to control; format: protein-complex assay
[4] = target: Sodium-dependent noradrenaline transporter (Homo sapiens, UniProt P23975); experiment: Displacement of [3H]-nisoxetine from human NET expressed in HEK cell membranes at 10 uM relative to control; conditions: HEK293
Sodium-dependent noradrenaline transporter, sequence (P23975 whole entry): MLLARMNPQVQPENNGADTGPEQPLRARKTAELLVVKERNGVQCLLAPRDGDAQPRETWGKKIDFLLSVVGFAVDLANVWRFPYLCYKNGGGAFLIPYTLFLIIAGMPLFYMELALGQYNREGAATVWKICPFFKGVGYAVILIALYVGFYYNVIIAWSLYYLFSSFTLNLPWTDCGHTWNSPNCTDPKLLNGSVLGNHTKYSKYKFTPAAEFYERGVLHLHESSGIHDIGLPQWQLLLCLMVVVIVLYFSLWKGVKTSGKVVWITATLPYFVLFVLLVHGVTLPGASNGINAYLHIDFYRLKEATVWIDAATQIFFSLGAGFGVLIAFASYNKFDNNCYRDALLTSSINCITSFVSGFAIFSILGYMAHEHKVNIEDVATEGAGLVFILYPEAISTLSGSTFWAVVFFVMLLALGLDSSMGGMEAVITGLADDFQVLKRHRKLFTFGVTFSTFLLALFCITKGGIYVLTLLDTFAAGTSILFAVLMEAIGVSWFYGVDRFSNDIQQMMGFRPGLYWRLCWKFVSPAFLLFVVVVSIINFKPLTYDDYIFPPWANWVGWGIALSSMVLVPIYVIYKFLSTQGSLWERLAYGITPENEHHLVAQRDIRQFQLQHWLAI

[5] = target: 5-hydroxytryptamine receptor 2B (Homo sapiens, UniProt P41595); experiment: Inhibition of 5-HT2B receptor (unknown origin) at 10 uM by PDSP assay relative to control
5-hydroxytryptamine receptor 2B, sequence (P41595 whole entry): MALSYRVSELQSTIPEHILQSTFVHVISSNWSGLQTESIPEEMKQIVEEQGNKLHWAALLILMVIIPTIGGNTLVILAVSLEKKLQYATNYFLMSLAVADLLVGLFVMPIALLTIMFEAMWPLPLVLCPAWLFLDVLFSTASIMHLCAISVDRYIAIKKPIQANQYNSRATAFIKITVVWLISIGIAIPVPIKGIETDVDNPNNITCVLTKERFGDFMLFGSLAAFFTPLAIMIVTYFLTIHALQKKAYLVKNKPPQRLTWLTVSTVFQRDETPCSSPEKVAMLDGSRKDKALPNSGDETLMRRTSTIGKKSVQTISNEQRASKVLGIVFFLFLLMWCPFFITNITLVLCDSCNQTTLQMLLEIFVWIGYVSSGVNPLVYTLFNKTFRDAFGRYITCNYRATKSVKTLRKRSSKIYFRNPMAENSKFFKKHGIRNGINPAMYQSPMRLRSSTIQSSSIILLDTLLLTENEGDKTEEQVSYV

[6] = target: Beta-2 adrenergic receptor (Homo sapiens) (UniProt P07550); experiment: Inhibition of adrenergic beta2 receptor (unknown origin) at 10 uM by PDSP assay relative to control
Beta-2 adrenergic receptor (Homo sapiens), sequence (P07550 whole entry, looked up): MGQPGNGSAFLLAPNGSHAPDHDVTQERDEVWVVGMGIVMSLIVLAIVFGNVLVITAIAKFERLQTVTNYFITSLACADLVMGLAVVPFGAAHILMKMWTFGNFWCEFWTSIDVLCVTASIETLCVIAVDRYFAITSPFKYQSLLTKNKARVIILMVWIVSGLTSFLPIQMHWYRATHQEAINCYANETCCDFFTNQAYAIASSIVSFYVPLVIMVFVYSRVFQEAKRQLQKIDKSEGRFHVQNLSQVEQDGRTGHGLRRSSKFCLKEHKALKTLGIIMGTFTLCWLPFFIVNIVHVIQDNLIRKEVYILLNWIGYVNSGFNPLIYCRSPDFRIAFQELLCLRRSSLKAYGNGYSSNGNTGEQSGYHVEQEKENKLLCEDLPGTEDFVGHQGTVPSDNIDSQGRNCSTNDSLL

[7] = target: 5-hydroxytryptamine receptor 1D (Homo sapiens) (UniProt P28221); experiment: Inhibition of 5-HT1D receptor (unknown origin) at 10 uM by PDSP assay relative to control
5-hydroxytryptamine receptor 1D (Homo sapiens), sequence (P28221 whole entry): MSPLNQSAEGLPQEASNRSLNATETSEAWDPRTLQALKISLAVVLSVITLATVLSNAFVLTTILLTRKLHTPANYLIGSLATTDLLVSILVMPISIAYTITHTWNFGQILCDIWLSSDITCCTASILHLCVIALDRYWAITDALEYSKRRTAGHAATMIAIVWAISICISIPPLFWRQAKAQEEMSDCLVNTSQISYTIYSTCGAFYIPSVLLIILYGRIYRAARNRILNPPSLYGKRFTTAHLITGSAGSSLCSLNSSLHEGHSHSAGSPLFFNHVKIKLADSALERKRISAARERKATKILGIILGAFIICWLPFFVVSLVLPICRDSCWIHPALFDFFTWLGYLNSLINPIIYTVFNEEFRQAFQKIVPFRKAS

Rattus norvegicus = species: Rattus norvegicus; experiment: Inhibition of rat brain BZP receptor at 10 uM by PDSP assay relative to control
[8] = target: T1, Alpha-2B adrenergic receptor (Homo sapiens) (UniProt P18089); experiment: Inhibition of adrenergic alpha2B receptor (unknown origin) at 10 uM by PDSP assay relative to control
T1 sequence (whole entry): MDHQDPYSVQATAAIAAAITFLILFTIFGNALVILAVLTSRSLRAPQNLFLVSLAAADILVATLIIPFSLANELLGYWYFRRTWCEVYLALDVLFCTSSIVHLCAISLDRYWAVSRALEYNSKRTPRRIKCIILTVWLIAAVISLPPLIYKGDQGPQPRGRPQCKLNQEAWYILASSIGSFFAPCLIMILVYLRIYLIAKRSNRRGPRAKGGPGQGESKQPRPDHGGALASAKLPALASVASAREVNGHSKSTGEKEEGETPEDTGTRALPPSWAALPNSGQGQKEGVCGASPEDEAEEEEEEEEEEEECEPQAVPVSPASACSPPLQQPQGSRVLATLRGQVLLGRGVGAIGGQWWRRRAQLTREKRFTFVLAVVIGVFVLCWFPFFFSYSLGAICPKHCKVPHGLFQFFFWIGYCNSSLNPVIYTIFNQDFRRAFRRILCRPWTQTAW

Mu-type opioid receptor = Mu-type opioid receptor (Homo sapiens, UniProt P35372); experiment: Inhibition of mu opioid receptor (unknown origin) at 10 uM by PDSP assay relative to control
Mu-type opioid receptor, sequence (P35372 whole entry): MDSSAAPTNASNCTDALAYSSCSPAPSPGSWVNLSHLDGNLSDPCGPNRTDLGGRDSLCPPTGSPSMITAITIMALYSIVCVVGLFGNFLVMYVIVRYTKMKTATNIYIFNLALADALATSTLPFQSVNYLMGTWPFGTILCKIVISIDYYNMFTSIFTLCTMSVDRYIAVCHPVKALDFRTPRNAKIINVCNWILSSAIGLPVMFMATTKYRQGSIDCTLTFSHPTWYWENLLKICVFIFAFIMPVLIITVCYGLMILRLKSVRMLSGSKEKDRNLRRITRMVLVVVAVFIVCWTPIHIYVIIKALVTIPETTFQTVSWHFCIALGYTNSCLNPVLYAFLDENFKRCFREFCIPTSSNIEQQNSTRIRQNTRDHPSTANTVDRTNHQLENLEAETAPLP

[9] = target: T2, 5-hydroxytryptamine receptor 3A (Homo sapiens) (UniProt P46098); experiment: Inhibition of 5-HT3 receptor (unknown origin) at 10 uM by PDSP assay relative to control
T2 sequence (whole entry): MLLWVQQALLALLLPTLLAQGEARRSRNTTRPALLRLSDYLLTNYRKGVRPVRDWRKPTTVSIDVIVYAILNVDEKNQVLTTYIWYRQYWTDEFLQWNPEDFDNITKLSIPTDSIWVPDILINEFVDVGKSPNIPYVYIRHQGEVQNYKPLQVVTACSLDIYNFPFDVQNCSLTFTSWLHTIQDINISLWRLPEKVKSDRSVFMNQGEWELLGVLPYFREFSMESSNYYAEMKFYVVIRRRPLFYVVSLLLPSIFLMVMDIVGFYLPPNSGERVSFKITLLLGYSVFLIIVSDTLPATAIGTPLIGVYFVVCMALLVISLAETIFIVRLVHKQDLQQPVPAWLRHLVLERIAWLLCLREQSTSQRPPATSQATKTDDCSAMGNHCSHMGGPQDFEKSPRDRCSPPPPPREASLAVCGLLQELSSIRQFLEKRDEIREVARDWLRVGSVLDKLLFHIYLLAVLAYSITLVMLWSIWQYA

[10] = target: T3, Muscarinic acetylcholine receptor M4 (Homo sapiens, UniProt P08173); experiment: Inhibition of muscarinic M4 receptor (unknown origin) by PDSP assay
T3 sequence (P08173 whole entry): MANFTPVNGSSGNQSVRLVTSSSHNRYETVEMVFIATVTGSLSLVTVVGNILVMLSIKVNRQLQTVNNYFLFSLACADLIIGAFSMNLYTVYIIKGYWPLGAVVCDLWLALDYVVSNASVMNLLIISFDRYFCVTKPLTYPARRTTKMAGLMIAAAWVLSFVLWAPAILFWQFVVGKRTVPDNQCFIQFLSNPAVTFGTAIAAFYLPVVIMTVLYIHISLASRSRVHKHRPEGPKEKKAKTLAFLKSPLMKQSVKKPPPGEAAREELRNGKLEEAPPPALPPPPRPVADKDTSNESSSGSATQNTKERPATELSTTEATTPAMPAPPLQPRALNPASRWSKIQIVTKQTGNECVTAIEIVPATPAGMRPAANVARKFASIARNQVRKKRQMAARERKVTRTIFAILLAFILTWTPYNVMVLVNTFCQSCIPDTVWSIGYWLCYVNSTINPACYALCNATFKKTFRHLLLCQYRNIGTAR

[11] = target: Sodium-dependent dopamine transporter (Homo sapiens, UniProt Q01959); experiment: Displacement of [3H]-WIN-35,428 from human DAT expressed in HEK cell membranes at 10 uM relative to control; conditions: HEK293
Sodium-dependent dopamine transporter, sequence (Q01959 whole entry): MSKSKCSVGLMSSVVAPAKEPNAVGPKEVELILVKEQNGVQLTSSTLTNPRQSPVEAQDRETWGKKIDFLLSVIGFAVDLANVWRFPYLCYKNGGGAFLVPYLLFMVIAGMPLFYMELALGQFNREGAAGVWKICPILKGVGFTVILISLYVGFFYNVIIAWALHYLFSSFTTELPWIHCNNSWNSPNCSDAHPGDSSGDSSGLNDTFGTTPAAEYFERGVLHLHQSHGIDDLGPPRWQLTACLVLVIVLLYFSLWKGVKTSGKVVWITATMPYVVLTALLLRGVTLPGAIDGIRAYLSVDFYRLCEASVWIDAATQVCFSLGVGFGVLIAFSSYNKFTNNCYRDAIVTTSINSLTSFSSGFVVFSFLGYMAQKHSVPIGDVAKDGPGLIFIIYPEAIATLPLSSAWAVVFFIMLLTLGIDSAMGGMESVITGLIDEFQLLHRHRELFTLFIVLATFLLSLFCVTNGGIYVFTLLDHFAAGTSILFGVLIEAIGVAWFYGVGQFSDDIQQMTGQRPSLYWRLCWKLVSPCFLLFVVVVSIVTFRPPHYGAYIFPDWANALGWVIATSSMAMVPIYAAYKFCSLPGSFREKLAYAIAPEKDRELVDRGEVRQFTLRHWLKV

Delta-type opioid receptor, sequence (P41143 whole entry): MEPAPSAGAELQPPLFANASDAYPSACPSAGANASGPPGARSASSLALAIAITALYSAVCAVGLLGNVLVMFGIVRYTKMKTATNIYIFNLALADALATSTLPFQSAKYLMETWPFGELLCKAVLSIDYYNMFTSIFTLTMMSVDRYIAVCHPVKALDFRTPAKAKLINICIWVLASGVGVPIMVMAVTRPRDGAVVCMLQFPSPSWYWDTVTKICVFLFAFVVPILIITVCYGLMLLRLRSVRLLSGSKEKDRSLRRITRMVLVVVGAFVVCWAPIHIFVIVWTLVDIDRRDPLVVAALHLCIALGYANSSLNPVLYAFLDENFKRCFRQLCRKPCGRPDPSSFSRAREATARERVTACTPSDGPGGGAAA

inhibition [1] [%]	inhibition [2] [%]	inhibition [3] [%]	inhibition [4] [%]	inhibition [5] [%]	inhibition [6] [%]	inhibition [7] [%]	inhibition (Rattus norvegicus) [%]	inhibition [8] [%]	inhibition (Mu-type opioid receptor) [%]	inhibition [9] [%]	Ki [10] [µM]	inhibition [11] [%]	Compound
< 50	< 50	< 50	< 50	< 50	< 50	< 50	< 50	< 50	< 50	< 50	5.91	–	COc1cc(CN(C)[C@H]2C3C4CC5C6C4CC3C6C52)cc(OC)c1OC (some centres not stated)
< 50	< 50	–	< 50	< 50	< 50	< 50	–	–	< 50	< 50	–	< 50	COc1ccc(CN[C@H]2C3C4CC5C6C4CC3C6C52)cc1OC (some centres not stated)
< 50	< 50	< 50	< 50	< 50	< 50	< 50	< 50	< 50	< 50	< 50	6.81	< 50	COc1ccc(CN(C)[C@H]2C3C4CC5C6C4CC3C6C52)cc1OC (some centres not stated)
< 50	< 50	–	< 50	< 50	< 50	< 50	–	–	< 50	< 50	–	–	c1ccc(CN[C@H]2C3C4CC5C6C4CC3C6C52)cc1 (some centres not stated)
< 50	< 50	< 50	< 50	–	< 50	< 50	< 50	–	< 50	< 50	–	< 50	COc1cc(CN[C@H]2C3C4CC5C6C4CC3C6C52)cc(OC)c1OC (some centres not stated)
< 50	< 50	< 50	< 50	< 50	< 50	< 50	< 50	< 50	< 50	< 50	–	< 50	CN(CC1CCCCC1)[C@H]1C2C3CC4C5C3CC2C5C41 (some centres not stated)
< 50	< 50	< 50	< 50	< 50	< 50	< 50	< 50	< 50	< 50	< 50	3.9	< 50	CN(CCCc1cccc(F)c1)[C@H]1C2C3CC4C5C3CC2C5C41 (some centres not stated)
< 50	< 50	< 50	< 50	< 50	< 50	< 50	< 50	< 50	< 50	< 50	7.38	< 50	COc1ccc(CN(C)[C@H]2C3C4CC5C3C(=O)C3C5C4C32)cc1OC (some centres not stated)

Compound	inhibition [1] [%]	inhibition [2] [%]	inhibition [3] [%]	inhibition [4] [%]	inhibition [5] [%]	inhibition [6] [%]	inhibition [7] [%]	inhibition (Rattus norvegicus) [%]	inhibition [8] [%]	inhibition (Mu-type opioid receptor) [%]	inhibition [9] [%]	Ki [10] [µM]	inhibition [11] [%]
CN(Cc1ccccc1)[C@H]1C2C3CC4C5C3CC2C5C41 (some centres not stated)	< 50	< 50	< 50	< 50	< 50	< 50	< 50	< 50	< 50	< 50	< 50	–	–
CN(CCc1ccccc1)[C@H]1C2C3CC4C5C3CC2C5C41 (some centres not stated)	< 50	< 50	< 50	< 50	–	< 50	< 50	< 50	–	< 50	< 50	–	< 50
CN(Cc1ccc2c(c1)OCO2)[C@H]1C2C3CC4C5C3CC2C5C41 (some centres not stated)	< 50	< 50	< 50	< 50	< 50	< 50	< 50	–	< 50	< 50	< 50	–	< 50
